# Legend:
# EL-4 cells = assay: Sphingomyelin and ceramide levels in intact EL-4 cells; type: cell-based, murine
# Protocol: IL-1β effects on sphingomyelin levels in EL4 cells. Time course (A) and dose response (B). Cells were grown to growth arrest (1-1.5×10^6 cells ml^-1) in DME/Ham's F12 medium (1:1, v/v) containing 10% horse serum and for 48 hours [^3 H]choline (1 μCi ml^-1). On the day of an experiment, cells were resuspended back into the same medium at 10×10^6 cells ml^-1 and stimulated with 40 ng ml^-1 IL-1β for the indicated times (A) or for 30 minutes with increasing concentrations of IL-1β (B). Human IL-1β may be obtained using methods well known to those skilled in the art. Reactions were terminated with CHCl3 :CH3 OH:HCl (100:100:1) containing 10 mM EDTA (82). Lipids in the organic phase extract were dried under N2 and subjected to mild alkaline hydrolysis (0.1 M methanolic KOH for 1 hour at 37° C.) to remove glycerophospholipids. Sphingomyelin was resolved by thin-layer chromatography (TLC) using CHCl3 :CH3 OH:CH3 COOH:H2 O (60:30:8:5) as solvent, identified by iodine vapor staining, and quantified by liquid scintillation spectrometry. As previously reported, the use of [^3 H]choline as a measure of sphingomyelin content was validated by simultaneous phospholipid phosphorus measurements. Each value represents the mean±SEM of triplicate determinations from four experiments in (A), and one representative of four similar studies performed in triplicate in (B).
# Effect of IL-1β on ceramide levels in EL-4 cells. Cells were stimulated as in FIG. 12 with IL-1β (40 ng ml^-1) and ceramide contained within the organic phase extract quantified enzymatically using the E. coli diacylglycerol kinase reaction. Lipids were resolved by TLC using CHCl3 :CH3 OH:CH3 COOH (65/15/5) as solvent, autoradiographed and quantified by liquid scintillation spectrometry. Each value represents the mean±SEM of triplicate determinations from 10 experiments.
# The murine thymoma EL-4 cell line is a well-defined IL-1 responsive cell line that expresses functional IL-1 receptors. Upon stimulation with IL-1, these cells up-regulate the IL-2 receptor and secrete IL-2 [62]. Initial studies were designed to investigate the effects of IL-1β on cellular sphingomyelin content. Cells, grown in Dulbecco's Modified Eagle's (DME)/Ham's F-12 medium containing 10% horse serum and [^3 H]choline (1 μCi ml^-1), were resuspended back into the same medium at 10×10^6 cells ml^-1 and stimulated with IL-1β. IL-1β is commercially available.
# protein kinase C = assay: Protein kinase C activity in EL-4 cells (lysine-rich histone phosphorylation); type: cell-based, murine (EL-4 cells); settings: membrane or cytosolic fractions
# YT cells = assay: Ceramide generation in YT cells (preliminary); type: cell-based, human
# sphingomyelin pathway = assay: Sphingomyelin, ceramide and CAP kinase activity in EL-4 cell-free system; type: biochemical, murine (EL-4 cells); settings: IL-1β 10 ng ml^-1
# Protocol: IL-1β effects on sphingomyelin and ceramide levels (A) and ceramide-activated protein kinase activity (B) in a cell-free system. […] Thereafter, supernates (300 μg incubation^-1 in 25 μl) were added to a reaction mixture (total volume 250 μl) as described in FIG. 14. For studies measuring lipid levels, incubations were stopped by extraction of lipids into an organic phase and resolved as described in FIGS. 12 and 13. For studies measuring kinase activity, incubations contained EGFR peptide and [^32 P]ATP, and phosphorylated peptide was quantified as described in FIG. 14. Background activity was subtracted from each point. Values (mean) represent data from two experiments for sphingomyelin performed in triplicate, three experiments for ceramide performed in triplicate, and five experiments for ceramide-activated protein kinase activity performed in duplicate.
# Early kinetics of activation of a potential signaling system provide some support that the pathway might be involved in the signaling process. However, signal transduction pathways are highly regulated and often interrelated. […] To provide additional support for tight coupling of the sphingomyelin pathway to activation of the IL-1β receptor, studies were performed with subcellular fractions derived from EL-4 cells. For these studies, supernates, collected after a low-speed centrifugation to remove nuclei, were first incubated with IL-1β for 10 minutes at 4° C. to permit formation of IL-1 receptor complexes. Thereafter, reactions were initiated by warming supernates to 22° C. in a reaction mixture containing Mg^2+ at pH 7.4. These conditions were adopted to allow for activation of endogenous neutral sphingomyelinase. For studies measuring kinase activity, reaction mixtures also contained [^32 P] ATP and EGFR peptide. […] In separate studies, a statistically significant reduction in sphingomyelin content (n=10) and elevation in ceramide content (n=6) were detected at 1 minute of stimulation (p<0.005 vs. control). […] These effects were quantitatively similar to those determined in the intact cells.
# [1] = system: ceramide-activated protein kinase; assay: Ceramide-activated protein kinase activity (EGFR peptide) in EL-4 cell fractions
# Protocol: Effect of IL-1β on ceramide-activated protein kinase activity. […] Homogenates were centrifuged at 500×g for 5 minutes to remove nuclei and at 200,000×g for 30 minutes to prepare microsomal membranes. Membranes were resuspended into homogenizing buffer (2.2 μg membrane protein μl^-1). For assay of kinase activity, the reaction mixture contained 20 μl of microsomal membrane, 40 μl EGFR peptide (4 mg ml^-1 in 25 mM Hepes, pH 7.4) and 100 μl buffer (50 mM HEPES, pH 7.4, 20 mM MgCl2). Phosphorylation was initiated at 22° C. by addition of 40 μl [γ-^32 P] ATP (100 μM final concentration) and terminated at the indicated times by addition of 40 μl of 0.5 M ATP in 90% formic acid. Phosphorylated peptide was eluted from a C18 Sep pak cartridge (Millipore), lyophilized, and resolved by C18 reverse phase HPLC using a linear gradient of acetonitrile. […] All assays were performed under conditions determined as linear for time and enzyme concentration. Enzyme activity was determined from the percent conversion of substrate to product and the specific radioactivity of [γ-^32 P] ATP. […] Values (mean±range) represent duplicate determinations from two experiments.
# Activity was measured by the transfer of ^32 P from the γ-position of ATP to EGFR peptide (AA 663-681 of the EGFR). The effect of IL-1β on kinase activity was determined using microsomal membranes derived from cells stimulated with IL-1β.
# [2] = p<0.005 vs. control at 1 minute
substance,measurement,setting,value
IL-1β: Human IL-1β,ED50 (sphingomyelin hydrolysis),EL-4 cells; 30 minutes,≈ 2 ng ml^-1
same,concentration of maximal effect (sphingomyelin hydrolysis),EL-4 cells; 30 minutes,10 ng/mL
same,effective concentration (sphingomyelin hydrolysis),EL-4 cells; 30 minutes,0.01 ng/mL
same,content of phosphatidylcholine,EL-4 cells; IL-1β,unchanged
same,onset of reduction in sphingomyelin content,EL-4 cells; IL-1β 40 ng ml^-1,≤ 2 min
same,ceramide content,"EL-4 cells; IL-1β 40 ng ml^-1, 2 minutes, from 360, p<0.005",403 pmol 10^6 cells^-1
same,maximum ceramide content,"EL-4 cells; IL-1β 40 ng ml^-1, 15 minutes, from 360",450 pmol 10^6 cells^-1
same,sphingomyelin content,"EL-4 cells; IL-1β 40 ng ml^-1, 30 minutes, baseline 800±14, mean±SEM, p<0.005",648±16 pmol 10^6 cells^-1
same,onset of ceramide increase,EL-4 cells; separate studies (n=4),≤ 30 s
same,IL-2 secretion in combination with TPA,EL4 cells; 24 h,stimulated secretion maximally
same,"IL-2 secretion, +TPA","EL4 cells; with TPA 20 ng ml^-1, 24 h, nd = not detectable, mean ± range",261 ± 2
same,protein kinase C activity,protein kinase C,not enhanced
same,ceramide generation,YT cells,rapid generation of ceramide
same,"ceramide-activated protein kinase activity, cell-free",sphingomyelin pathway,increased
same,"ceramide content, cell-free",sphingomyelin pathway; [2],quantitative increase in ceramide content
same,"sphingomyelin content, cell-free",sphingomyelin pathway; [2],rapid reduction in sphingomyelin content
same,ED50 (kinase activity),[1],≈ 2 ng ml^-1
same,concentration of maximal effect (kinase activity),[1],10 ng/mL
same,effective concentration (kinase activity),[1],0.03 ng/mL
same,onset of increase in kinase activity,[1]; IL-1β 10 ng ml^-1,30 s
same,time of maximal kinase activity,[1]; IL-1β 10 ng ml^-1,2 min
same,kinase activity,"[1]; IL-1β 10 ng ml^-1, from 5",11 pmol/min/mg
same,"kinase activity, fold of control","[1]; IL-1β 10 ng ml^-1, microsomal membranes, p<0.005",2.1 fold of control
same,cytosolic kinase activity toward EGFR peptide,[1]; cytosolic fractions,not enhanced

# Source: patent publication US6040149A, “Assay for identifying agents which act on the ceramide-activated protein kinase, kinase suppressor of ras, and methods of using said agents” (priority 1997, dated 2000)
